Results as given in US9388162B2, “Substituted morphinans and the use thereof” (Purdue Pharma L.P., priority 2012, dated 2016).

Assays:
[1] = molecular target: κ opioid receptor (Homo sapiens (Human), UniProt P41145); experiment: κ-opioid receptor [35S]GTPγS functional assay, U-2 OS cells; format: biochemical; conditions: κ GTP; for EC50: read-out: Activity Response κ EC50 (nM) [mean ± SEM]; for Emax: relative to U69,593, read-out: Activity Response κ Emax (%)
Description: Membranes from HEK-293 cells, CHO or U-2 OS cells expressing the recombinant human kappa opioid receptor (κ) were prepared by lysing cells in ice cold hypotonic buffer (2.5 mM MgCl2, 50 mM HEPES, pH 7.4) (10 mL/10 cm dish) followed by homogenization with a tissue grinder/Teflon pestle. Membranes were collected by centrifugation at 30,000×g for 15 min at 4° C. and pellets were resuspended in hypotonic buffer to a final concentration of 1-3 mg/mL. Protein concentrations were determined using the BioRad protein assay reagent with bovine serum albumen as standard. Aliquots of κ receptor membranes were stored at −80° C.
Functional [^35S]GTPγS binding assays were conducted as follows. κ opioid receptor membrane solution was prepared by sequentially adding final concentrations of 0.026 μg/μl κ membrane protein (in-house), 10 μg/mL saponin, 3 μM GDP and 0.20 nM [^35S]GTPγS to binding buffer (100 mM NaCl, 10 mM MgCl2, 20 mM HEPES, pH 7.4) on ice. The prepared membrane solution (190 μl/well) was transferred to 96-shallow well polypropylene plates containing 10 μl of 20× concentrated stock solutions of agonist prepared in DMSO. Plates were incubated for 30 min at a temperature of about 25° C. with shaking. Reactions were terminated by rapid filtration onto 96-well Unifilter GF/B filter plates (Perkin Elmer, Shelton, Conn.) using a 96-well tissue harvester (Packard) and followed by three filtration washes with 200 μl ice-cold binding buffer (10 mM NaH2PO4, 10 mM Na2HPO4, pH 7.4). Filter plates were subsequently dried at 50° C. for 2-3 hours. Fifty μl/well scintillation cocktail (Perkin Elmer, Shelton, Conn.) was added and plates were counted in a Packard Top-Count for 1 min/well.
κ GTP EC50 is the concentration of a compound providing 50% of the maximal response for the compound at a κ receptor.
κ GTP Emax (%) is the maximal effect elicited by a compound relative to the effect elicited by U69,593.
In TABLE 3, binding affinity of certain Compounds of the Invention to the μ- and κ-opioid receptors was determined as described above. In TABLE 4, activity response of certain Compounds of the Invention to the μ- and κ-opioid receptors was determined as described above for functional assays using HEK-293 cells. In TABLE 5, activity response of certain Compounds of the Invention to the μ- and κ-opioid receptors was determined as described above using U-2 OS cells.

[2] = molecular target: μ-opioid receptors (Homo sapiens (Human), UniProt P35372); experiment: μ-opioid receptor [35S]GTPγS functional assay, U-2 OS cells; format: biochemical; conditions: μ GTP; for EC50: read-out: Activity Response μ EC50 (nM) [mean ± SEM]; for Emax: read-out: Activity Response μ Emax (%)
Description: [^35S]GTPγS functional assays were conducted using freshly thawed μ-receptor membranes prepared from a cell line expressing recombinant μ opioid receptor in a HEK-293, CHO or U-2 OS cell background or purchased from a commercial source (Perkin Elmer, Shelton, Conn.; or DiscovRx, Fremont, Calif.). Assay reactions were prepared by sequentially adding the following reagents to binding buffer (100 mM NaCl, 10 mM MgCl2, 20 mM HEPES, pH 7.4) on ice (final concentrations indicated): membrane protein (0.026 mg/mL), saponin ([…]), GDP ([…]) and [^35S]GTPγS (0.20 nM; Perkin Elmer, Shelton, Conn.). The prepared membrane solution (190 μl/well) was transferred to 96-shallow well polypropylene plates containing 10 μl of 20× concentrated stock solutions of the agonist [D-Ala^2, N-methyl-Phe^4 Gly-ol^5]-enkephalin (DAMGO) prepared in dimethyl sulfoxide (DMSO). Plates were incubated for 30 min at about 25° C. with shaking. Reactions were terminated by rapid filtration onto 96-well Unifilter GF/B filter plates (Perkin Elmer, Shelton, Conn.) using a 96-well tissue harvester (Perkin Elmer, Shelton, Conn.) followed by three filtration washes with 200 μl of ice-cold wash buffer (10 mM NaH2PO4, 10 mM Na2HPO4, pH 7.4). Filter plates were subsequently dried at 50° C. for 2-3 hours. BetaScint scintillation cocktail (Perkin Elmer, Shelton, Conn.) was added (50 μl/well) and plates were counted using a Packard Top-Count for 1 min/well. Data were analyzed using the sigmoidal dose-response curve fitting functions in GraphPad PRISM v. 3.0, or an in-house function for non-linear, sigmoidal dose-response curve-fitting.
μ GTP EC50 is the concentration of a compound providing 50% of the maximal response for the compound at a μ-opioid receptor.
μ GTP Emax (%) is the maximal effect elicited by a compound relative to the effect elicited by DAMGO, a standard μ agonist. Generally, the μ GTP Emax (%) value measures the efficacy of a compound to treat or prevent pain or other Conditions.
The following tables provide results on the efficacy of binding and activity response of exemplified Compounds of the Invention at the μ- and κ-opioid receptors. In TABLE 3, binding affinity of certain Compounds of the Invention to the μ- and κ-opioid receptors was determined as described above. In TABLE 4, activity response of certain Compounds of the Invention to the μ- and κ-opioid receptors was determined as described above for functional assays using HEK-293 cells. In TABLE 5, activity response of certain Compounds of the Invention to the μ- and κ-opioid receptors was determined as described above using U-2 OS cells.

Row | Compound | EC50 [1] [nM] | Emax [1] [%] | EC50 [2] [nM] | Emax ([2]; relative to DAMGO) [%] | Activity Response μ Emax (%) ([2]; relative to DAMGO) | Activity Response κ Emax (%) ([1]; relative to U69,593)
1 | COc1ccc2c(c1)[C@]13CCN(C)[C@H](C2)[C@]1(O)C[C@H](CC(=O)O)C(=O)C3 [Compound 60, 2-((4bR,7R,8aS,9R)-8a-hydroxy-3-methoxy-11-methyl-6-oxo-6,7,8,8a,9,10-hexahydro-5H-9,4b-(epiminoethano)phenanthren-7-yl)acetic acid] | 14900 ± 1320 | 84.3 ± 0.67 |  |  |  | 
2 | CN1CC[C@]23CC(=O)[C@@H](CC(=O)N4CCC(O)CC4)C[C@@]2(O)[C@H]1Cc1ccc(O)cc13 [Compound 81, (4bR,7R,8aS,9R)-3,8a-dihydroxy-7-(2-(4-hydroxypiperidin-1-yl)-2-oxoethyl)-11-methyl-8,8a,9,10-tetrahydro-5H-9,4b-(epiminoethano)phenanthren-6(7H)-one] | 6510 ± 1190 | 34 ± 2.65 | 1000 ± 276 | 84.3 ± 3.84 |  | 
3 | CCOC(=O)C[C@H]1C[C@@]2(O)[C@H]3Cc4ccc(OC)cc4[C@@]2(CCN3C)CC1=O [Compound 59, ethyl 2-((4bR,7R,8aS,9R)-8a-hydroxy-3-methoxy-11-methyl-6-oxo-6,7,8,8a,9,10-hexahydro-5H-9,4b-(epiminoethano)phenanthren-7-yl)acetate] | > 200000 | 59 ± 1.53 | 11500 ± 903 | 100 ± 4.62 |  | 
4 | CC(C)CCC(=O)N[C@H]1C[C@@]2(O)[C@H]3Cc4ccc(O)cc4[C@@]2(CCN3CC2CC2)CC1=O [Compound 30, N-((4bR,7S,8aS,9R)-11-(cyclopropylmethyl)-3,8a-dihydroxy-6-oxo-6,7,8,8a,9,10-hexahydro-5H-9,4b-(epiminoethano)phenanthren-7-yl)-4-methylpentanamide] | 1.61 ± 0.12 | 97.7 ± 3.18 | 9.61 ± 0.83 | 51 ± 2.65 |  | 
5 | COc1ccc2c(c1)[C@]13CCN(C)[C@H](C2)[C@]1(O)C[C@H](CC(=O)N1CCOCC1)C(=O)C3 [Compound 79, (4bR,7R,8aS,9R)-8a-hydroxy-3-methoxy-11-methyl-7-(2-morpholino-2-oxoethyl)-8,8a,9,10-tetrahydro-5H-9,4b-(epiminoethano)phenanthren-6(7H)-one] | > 200000 | 51 ± 0.58 | 11700 ± 3620 | 60 ± 10.2 |  | 
6 | CC(C)C[C@H]1C[C@@]2(O)[C@H]3Cc4ccc(O)cc4[C@@]2(CCN3CC2CC2)CC1=O [Compound 69, (4bR,7S,8aS,9R)-11-(cyclopropylmethyl)-3,8a-dihydroxy-7-isobutyl-8,8a,9,10-tetrahydro-5H-9,4b-(epiminoethano)phenanthren-6(7H)-one] | 9.52 ± 1.41 | 95.2 ± 1.89 | > 200000 | 2 |  | 
7 | COc1ccc2c(c1)[C@]13CCN(C)[C@H](C2)[C@]1(O)C[C@H](CC(=O)N1CCCCC1)C(=O)C3 [Compound 76, (4bR,7R,8aS,9R)-8a-hydroxy-3-methoxy-11-methyl-7-(2-oxo-2-(piperidin-1-yl)ethyl)-8,8a,9,10-tetrahydro-5H-9,4b-(epiminoethano)phenanthren-6(7H)-one] | > 200000 | 47.7 ± 2.19 | 16700 ± 2270 | 61.7 ± 1.86 |  | 
8 | COc1ccc2c(c1)[C@]13CCN(CC4CC4)[C@H](C2)[C@]1(O)C[C@H](OCC(C)C)C(=O)C3 [Compound 23, (4bR,7S,8aS,9R)-11-(cyclopropylmethyl)-8a-hydroxy-7-isobutoxy-3-methoxy-8,8a,9,10-tetrahydro-5H-9,4b-(epiminoethano)phenanthren-6(7H)-one] | 5560 ± 481 |  | 2100 ± 735 |  | 15.7 ± 3.71 | 90.0 ± 1.00
9 | CC(C)C(=O)N[C@H]1C[C@@]2(O)[C@H]3Cc4ccc(O)cc4[C@@]2(CCN3CC2CC2)CC1=O [Compound 27, N-((4bR,7S,8aS,9R)-11-(cyclopropylmethyl)-3,8a-dihydroxy-6-oxo-6,7,8,8a,9,10-hexahydro-5H-9,4b-(epiminoethano)phenanthren-7-yl)isobutyramide] | 24.7 ± 3.18 | 92.7 ± 3.18 | > 200000 | 8 ± 2.12 |  | 
